The results in this text go back to ChEMBL document CHEMBL4823304, “Phytochemicals from the flowers of Prunus persica (L.) Batsch: Anti-adipogenic effect of mandelamide on 3T3-L1 preadipocytes” (Bioorg Med Chem Lett, 2021).

SMILES strings stand for the structures. The source made the active and inactive calls. The calls are words filed in the database; no cut-off is given here.

Data set [1] concerns 3T3-L1. Kind of data set: Cytotoxicity against in mouse 3T3-L1 cells assessed as reduction in cell viability at 100 uM incubated for 24 hrs by MTT assay relative to control. Format: cell-based. The settings on record: 3t3-l1, 24 h.
The test system of data set [2] is 3T3-L1. Nature of the data set: Inhibition of preadipocyte differentiation in mouse 3T3-L1 cells assessed as lipid droplet accumulation at 100 uM incubated for 8 days by Oil Red O staining method relative to untreated control. Format: functional.
The test system of data set [3] is 3T3-L1. Kind of data set: Inhibition of preadipocyte differentiation in mouse 3T3-L1 cells assessed as lipid droplet accumulation incubated for 8 days by Oil Red O staining method relative to untreated control. The settings on record: 3T3-L1, 192 h. Format: functional, cell-based.
Data set [4] relates to 3T3-L1. Kind of data set: Anti-adipogenic activity against mouse 3T3-L1 cells assessed as decrease in p-ERK protein expression measured after 8 days by Western blotting analysis relative to control. The settings on record: time 8.0 day. Format: functional, cell-based.
In data set [5] the test system is 3T3-L1. Kind of data set: Anti-adipogenic activity against mouse 3T3-L1 cells assessed as decrease in ERK protein expression measured after 8 days by Western blotting analysis relative to control. Format: functional, cell-based. As to conditions: time 8.0 day.
The test system of data set [6] is 3T3-L1. Kind of data set: Anti-adipogenic activity against mouse 3T3-L1 cells assessed as decrease in p-JNK protein expression measured after 8 days by Western blotting analysis relative to control. Format: functional, cell-based. As to conditions: time 8.0 day.
In data set [7] the test system is 3T3-L1. Kind of data set: Anti-adipogenic activity against mouse 3T3-L1 cells assessed as decrease in JNK protein expression measured after 8 days by Western blotting analysis relative to control. Format: functional, cell-based. As to conditions: time 8.0 day.
Data set [8] concerns 3T3-L1. Nature of the data set: Anti-adipogenic activity against mouse 3T3-L1 cells assessed as decrease in p-P38 protein expression measured after 8 days by Western blotting analysis relative to control. Format: functional, cell-based. As to conditions: time 8.0 day.
Data set [9] deals with 3T3-L1. Nature of the data set: Anti-adipogenic activity against mouse 3T3-L1 cells assessed as decrease in P38 protein expression measured after 8 days by Western blotting analysis relative to control. Format: functional, cell-based. As to conditions: time 8.0 day.
The test system of data set [10] is 3T3-L1. Nature of the data set: Anti-adipogenic activity against mouse 3T3-L1 cells assessed as decrease in C/EBPalpha protein expression measured after 8 days by Western blotting analysis relative to control. As to conditions: time 8.0 day. Format: functional, cell-based.
The subject of data set [11] is 3T3-L1. Nature of the data set: Anti-adipogenic activity against mouse 3T3-L1 cells assessed as decrease in C/EBPbeta protein expression measured after 8 days by Western blotting analysis relative to control. Format: functional, cell-based. The settings on record: time 8.0 day.
Data set [12] concerns 3T3-L1. Nature of the data set: Anti-adipogenic activity against mouse 3T3-L1 cells assessed as decrease in PPARgamma protein expression measured after 8 days by Western blotting analysis relative to control. Format: functional, cell-based. The settings on record: time 8.0 day.
The test system of data set [13] is 3T3-L1. Kind of data set: Anti-adipogenic activity against mouse 3T3-L1 cells assessed as decrease in GR protein expression measured after 8 days by Western blotting analysis relative to control. The settings on record: time 8.0 day. Format: functional, cell-based.

As to `NC(=O)[C@H](O[C@@H]1O[C@H](CO[C@@H]2O[C@H](CO)[C@@H](O)[C@H](O)[C@H]2O)[C@@H](O)[C@H](O)[C@H]1O)c1ccccc1`, in data set [1], the Activity entry is recorded as “Non-Toxic”. Moreover, the result in data set [2] (time 8.0 day) was Active.
Regarding `NC(=O)[C@H](O)c1ccccc1`, the Activity result in [1] is “Non-Toxic”; in data set [2] (time 8 day) it was 12.23%; in data set [4] it was “Dose-Dependent Effect”; in data set [5], “Dose-Dependent Effect”; in [6] it was “Dose-Dependent Effect”; in data set [7] it was “Dose-Dependent Effect”. Moreover, the Activity entry in data set [8], in data set [9], in data set [10], in [11], in [12] and in [13] was “Dose-Dependent Effect” throughout. In addition, the 50% inhibitory concentration (IC50) in data set [3] was 36 µM.
For `COC(=O)/C=C/c1ccc(O)c(O)c1` [METHYLCAFFEATE], the Activity result in [1] is “Non-Toxic”; in [2] (time 8 day), 34.67%.
For the compound `O=c1ccn([C@@H]2O[C@H](CO)[C@@H](O)[C@H]2O)c(=O)[nH]1` [URIDINE], the Activity result in [1] is listed as “Non-Toxic”. In addition, the outcome in [2] (time 8.0 day) was Active.
With `C[C@@H]1O[C@@H](Oc2c(-c3ccc(O)cc3)oc3cc(O)cc(O)c3c2=O)[C@H](O)[C@H](O)[C@H]1O` [AFZELIN], in data set [1], the Activity result is listed as “Non-Toxic”. Besides, in data set [2] (time 8.0 day), the outcome was Active.
On to `COc1cc(/C=C/C(=O)O)ccc1O` [FERULATE], for which the Activity entry in data set [1] is listed as “Non-Toxic”; in data set [2] (time 8 day), 58.22%.
In the case of `O[C@@H]1[C@@H](O)[C@H](OCc2ccccc2)O[C@H](CO[C@H]2OC[C@H](O)[C@@H](O)[C@@H]2O)[C@H]1O`, in [1], the Activity entry is recorded as “Non-Toxic”. Also, the outcome in [2] (time 8.0 day) was Active.
With `O=C(/C=C/c1ccc(O)c(O)c1)O[C@@H]1C[C@](O)(C(=O)O)C[C@@H](O)[C@H]1O` [CHLOROGENIC ACID], the Activity result in data set [1] is “Non-Toxic”; in data set [2] (time 8 day) it was 58.44%.
In the case of `O=C1C[C@@H](c2ccc(O)cc2)Oc2cc(O[C@@H]3O[C@H](CO)[C@@H](O)[C@H](O)[C@H]3O)cc(O)c21` [PRUNIN], the Activity result in [1] is recorded as “Non-Toxic”. Moreover, the outcome in data set [2] (time 8.0 day) was Active.
With `O=C(O)[C@H](O[C@@H]1O[C@H](CO)[C@@H](O)[C@H](O)[C@H]1O)c1ccccc1`, in [1], the Activity entry is listed as “Non-Toxic”. Also, the result in [2] (time 8.0 day) was Active.
For `O=C1C[C@@H](c2ccc(O)cc2)Oc2cc(O)cc(O)c21` [NARINGENIN], the Activity result in [1] is “Non-Toxic”; in [2] (time 8 day), 44.21%.
In the case of `NC(=O)[C@H](O[C@@H]1O[C@H](CO)[C@@H](O)[C@H](O)[C@H]1O)c1ccccc1`, the Activity result in data set [1] is recorded as “Non-Toxic”. Further, the result in data set [2] (time 8.0 day) was Active.
As to `O=c1c(O[C@@H]2O[C@H](CO)[C@@H](O)[C@H](O)[C@H]2O)c(-c2ccc(O)cc2)oc2cc(O)cc(O)c12` [ASTRAGALIN], in [1], the Activity entry is listed as “Non-Toxic”. Besides, in data set [2] (time 8.0 day), the outcome was Active.
Consider `C[C@@H]1O[C@@H](OC[C@H]2O[C@@H](Oc3c(-c4ccc(O)cc4)oc4cc(O)cc(O)c4c3=O)[C@H](O)[C@@H](O)[C@@H]2O)[C@H](O)[C@H](O)[C@H]1O` [NICOTIFLOROSIDE], for which the Activity result in data set [1] was “Non-Toxic”. Moreover, the outcome in [2] (time 8.0 day) was Active.
